Data: patent publication US11419870B2, “Intermittent dosing of MDM2 inhibitor” (Novartis AG, priority 2014, dated 2022)

Experiments:
[1] = Pharmacokinetics of Compound A in SJSA-1 tumor-bearing rat (plasma, tumor, tissues; UPLC/MS-MS); format: in vivo, nude rat
Protocol: Subcutaneous tumors were induced by concentrating 1.0×10^7 SJSA-1 cells in 50% Matrigel® and injecting in the right flank of Harlan nude rats. Efficacy experiment could start 14 days post cell injection. […] The animals were treated either at a high dose (20 mg/kg i.v. or 27 mg/kg p.o.) once every 3 weeks (q3w) or at a high dose (15 mg/kg p.o.) followed 24 h later by a daily low dose treatment (3 mg/kg p.o., 2 weeks on/2 weeks off).
(§1) At the times indicated, animals were anaesthetized by exposure to 2-3% v/v isofluorane in medical oxygen: • Either the animal was killed without recovering from anesthetic after blood sampling. Blood was collected into commercially prepared EDTA coated tubes (Milian, cat #TOM-14C) in order to extract plasma. The tissues were excised, weighed and rapidly frozen in liquid nitrogen. • Or a tumor biopsy was collected by using a biopsy gun and flushing the needle with RLT buffer in Barney rubble tubes (Covaris, cat #520048). In addition, 20 μl of blood may have been collected from the tail vein and diluted in 20 μl of water. After recovery of anesthesia, animals were transferred in their respective cages.
Tissues were homogenized in an equal volume of HPLC-Water (Water for chromatography, Merck) using the Fast Prep®-24 system (M.P. Biomedicals, Irvine, Calif., USA). Following addition of 25 μl of internal standard mixture (1 μg/ml) to analytical aliquots (25 μl) of plasma or tissues homogenate the proteins were precipitated by the addition of 200 μl acetonitrile. The supernatant were transferred in a fresh vial. After evaporation to dryness the samples were re-dissolved in 60 μl acetonitrile/water (1/1 v/v). An aliquot (5 μl) of this solution was separated on a ACQUITY UPLC BEH C18 column (Waters™ 1.7 μm particle size, 2.1×50 mm) with a mobile phase consisting of a mixture of 0.1% formic acid in water (solvent A) and 0.1% formic acid in acetonitrile (solvent B). Gradient programming was used with a flow rate of 600 μl/min. After equilibration with 95% solvent A, 5 μl of sample was injected. Following a latency period of 0.25 min, the sample was eluted with a linear gradient of 5-100% solvent B over a period of 0.65 minutes followed by a 0.35 minutes hold. The column was prepared for the next sample by re-equilibrating over 0.25 minutes to the starting conditions. The column eluent was directly introduced into the ion source of the triple quadrupole mass spectrometer TQD™ (Waters Corporation, Milford, Mass., USA) controlled by Masslynx™ 4.1 software. Electrospray positive ionization (ESI+) multiple reaction monitoring was used for the MS/MS detection of the analyte. […] The limit of quantification (LOQ) for the compound was set to 0.7 ng/mL (CV and overall bias less than 30%). Regression analysis and further calculations were performed using QuanLynx™ 4.1 (Micromass) and Excel™ 2007 (Microsoft). Concentrations of unknown samples were back-calculated based on the peak area ratios of analyte/IS from a calibration curve constructed using calibration samples spiked in blank plasma or tissue obtained from animals treated with vehicle.
Areas under the plasma concentration versus time curves (AUC) were calculated from the mean values with linear trapezoidal rule, and further relevant parameters by using a non-compartmental model for extravascular dosing (WinNonlin® Professional Version 5.2, Pharsight corp., CA, US).

[2] = tested on: Cdkn1 a (p21); experiment: Pharmacodynamic qRT-PCR: p21 mRNA induction in SJSA-1 tumor; format: in vivo, nude rat
Description: as §1
Frozen tissues were cryogenic dry pulverized and biopsies were sonicated using the CryoPrep™ system (model CP-02) from Covaris. More specifically, frozen tissues were transferred to disposable tubes called TissueTubes™, placed in the CryoPrep™ system and then pulverized using the appropriate impact setting. The resulting powder was collected with a spatula and weighed for further processing (mRNA purification or quantification of compound in tissues). The biopsies were flushed in a Barney rubble glass tubes with 350 μl of RLT buffer and placed in the Covaris for sonication (1 min per biopsy). The resulting lysate was transferred into a QIAshredder (79654, Qiagen) column for RNA extraction.
Total RNA was purified from cell pellets using the QIAshredder (79654, Qiagen) and RNeasy Mini Kit (74106, Qiagen) according to the manufacturer's instructions, with the exception that no DNA digestion was performed. Total RNA was eluted with 50 μL of RNase-free water. Total RNA was quantitated using the spectrophotometer ND-1000 Nanodrop®. The qRT-PCR (Quantitative Reverse Transcriptase Polymerase Chain Reaction) was set up in triplicate per sample using the One-Step RT qPCR Master Mix Plus (RT-QPRT-032X, Eurogentec), with either control primers and primers for the target, namely TaqMan Gene Expression assays (20× probe dye FAM™ (or VIC)-TAMRA (or MGB); Applied Biosystems) listed in Table 1.

[3] = tested on: p21, Mdm2 and cleaved Caspase-3 in jejunum and bone marrow (sternum); experiment: Immunohistochemistry of host tissues after i.v. treatment; format: in vivo, rat; settings: i.v. 20 mg/kg
Protocol: Sections were cut at 3 μm using a microtome. p21 and cleaved Caspase-3 immunohistochemistry was performed on a Ventana Discovery XT automated immunostainer using the OmniMap anti Mouse or Rabbit HRP secondary reagent and the ChromoMap DAB chromogen system (Ventana/Roche Diagnostics GmbH, Mannheim, Germany). […] The primary antibody was applied manually at the desired dilution in Dako antibody diluent, followed by incubation for 1 hour at room temperature. Corresponding negative controls were incubated with AbD only. Counterstaining of sections was done using hematoxylin (Ventana/Roche Diagnostics). After the automated staining run, slides were dehydrated in a graded series of ethanol, cleared in xylene and mounted with Pertex mounting medium.

[4] = tested on: melanoma patient derived xenograft (PDX); experiment: Efficacy in melanoma patient derived xenograft bearing rat (per os); format: in vivo; settings: 27 mg/kg q3w per os
Description: The same experiments were repeated with melanoma PTX bearing rat.

## COc1ncc(-c2nc3c(n2C(C)C)[C@H](c2ccc(Cl)cc2)N(c2cc(Cl)cn(C)c2=O)C3=O)c(OC)n1 [Compound A, (S)-5-(5-Chloro-1-methyl-2-oxo-1,2-dihydro-pyridin-3-yl)-6-(4-chloro-phenyl)-2-(2,4-dimethoxy-pyrimidin-5-yl)-1-isopropyl-5,6-dihydro-1H-pyrrolo[3,4-d]imidazol-4-one]
[1]; after first p.o. treatment, 20 and 27 mg/kg q3w
  Cmax and AUC0-24 h in blood: dose-dependently increased
[1]; i.v. 20 mg/kg on day 59 post first treatment
  exposure in heart, jejunum, spleen, liver and bone marrow compared to plasma: twice as high as in plasma
[1]; nude (Harlan), rat, iv, single i.v. injection 20 mg/kg, liver
  Tmax: 5 min
[1]; nude (Harlan), rat, iv, single i.v. injection 20 mg/kg, plasma
  Tmax: 5 min
[1]; nude (Harlan), rat, iv, single i.v. injection 20 mg/kg, tumor
  Tmax: 60 min
[1]; nude (Harlan), rat, single oral 27 mg/kg, all matrices (plasma, tumor and liver)
  Tmax: 180 min
[1]; nude (Harlan), rat, single oral 27 mg/kg, plasma, read-out: AUC0-144 h
  AUC(0-t): 112 µM·h
[1]; single i.v. injection 20 mg/kg
  exposure in tumor compared to plasma: two times higher
[1]; single i.v. injection 20 mg/kg, tumor
  AUC0-144 h dn: 16.5 nmol·h/g
[1]; single oral 27 mg/kg, tumor
  AUC0-144 h: 277.7 nmol·h/g
[2]; after first p.o. treatment, 20 and 27 mg/kg
  p21 mRNA expression in tumor: dose-dependently increased
[2]; after first single i.v. treatment 20 mg/kg
  p21 mRNA expression increase in tumor: more than 50 fold
[2]; single i.v. 20 mg/kg, 24 h post treatment, tumor
  p21 mRNA expression max: 200 fold
[2]; single oral 27 mg/kg, 48 h post treatment, tumor
  p21 mRNA induction Emax: 180 fold
[3]; jejunum and bone marrow (sternum)
  time of maximum increase in p21, Mdm2 and cleaved Caspase-3: 3 h
[3]; post treatment
  time of return of all staining to baseline: 7 days
[4]
  efficacy of intermittent dosing: showed efficacy
